From patent US10611740B2, “Aryl dihydro-2H-benzo[b][1,4]oxazine sulfonamide and related compounds for use as agonists of RORγ and the treatment of disease” (Lycera Corporation, priority 2015, dated 2020)
pEC50: −log10 of the molar value.

How the values were obtained:
Gal4-RORγ-LBD = molecular target: T1, Gal4-RORγ-LBD (Homo sapiens, UniProt P51449); experiment: Gal4-RORγ Luciferase Reporter Assay in HEK-293T Cells; type: cell-based; conditions: HEK-293 cells, 2 μM ursolic acid
T1 construct: expressed in transfected cells; host or cells: HEK-293 cells (pcDNA3.1neo plasmid)
T1 sequence (P51449 269-508 limits assumed): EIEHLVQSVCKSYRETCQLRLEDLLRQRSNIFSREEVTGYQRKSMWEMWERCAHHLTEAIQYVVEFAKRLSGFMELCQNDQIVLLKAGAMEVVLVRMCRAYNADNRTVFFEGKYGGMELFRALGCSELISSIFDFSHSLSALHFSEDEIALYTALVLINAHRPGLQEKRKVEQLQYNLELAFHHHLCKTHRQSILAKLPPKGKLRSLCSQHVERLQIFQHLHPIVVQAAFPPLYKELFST
How it was run: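 In transfected HEK-293 cells (Gal4-RORγ-LBD, Gal4-luciferase), test agents with 2 μM ursolic acid were incubated overnight at 37 °C before luminescent detection. Values are relative to the ursolic-acid-free, compound-free signal (100).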

RORγ-LBD = molecular target: T2, RORγ-LBD (Homo sapiens, UniProt P51449); experiment: RORγ-Ligand Binding Domain (LBD) TR-FRET Assay; type: biochemical;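 on TR-FRET Assay Max Response: 665/615 nm ratio relative to signal without ursolic acid or compound set at 100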
T2 construct: made in house; host or cells: SF9 cells (baculovirus)
T2 sequence (P51449 269-508 limits assumed): T1 sequence (P51449 269-508 limits assumed)
How it was run: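 Lysate from SF9 cells expressing His-RORγ-LBD is diluted to about 3 nM final in 50 mM Tris pH 7.0 assay buffer. A biotin-tagged SRC1 LXXLL peptide goes in at 200 nM final, plus ursolic acid at 2 μM final. Test compounds carry 1% DMSO final; signal read by TR-FRET.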

Compound | pEC50 (Gal4-RORγ-LBD) | Gal4-RORγ Assay Max Response (Gal4-RORγ-LBD) | pEC50 (RORγ-LBD) | TR-FRET Assay Max Response (RORγ-LBD)
CC[C@H](C[C@H]1CN(S(=O)(=O)c2cccc(C(F)(F)F)c2)c2cc(-c3cc(F)cc(F)c3Cl)ccc2O1)C(=O)O [Compound 46F, (R)-2-(((S)-6-(2-chloro-3,5-difluorophenyl)-4-((3-(trifluoro-methyl)phenyl)sulfonyl)-3,4-dihydro-2H-benzo[b][1,4]oxazin-2-yl)methyl)butanoic acid] | 5.30 to 6.30 | * (The symbol “*” indicates a value in the range of 25 to 90) | > 6.30 | *** (The symbol “***” indicates a value in the range of greater than 150 to 200)
CC[C@@H](C[C@H]1CN(S(=O)(=O)c2cccc(C(F)(F)F)c2)c2cc(-c3cc(F)cc(F)c3Cl)ccc2O1)C(=O)O [Compound 46G, (S)-2-(((S)-6-(2-chloro-3,5-difluorophenyl)-4-((3-(trifluoro-methyl)phenyl)sulfonyl)-3,4-dihydro-2H-benzo[b][1,4]oxazin-2-yl)methyl)butanoic acid] | > 6.30 | ** (The symbol “**” indicates a value in the range of greater than 90 to 150) | > 6.30 | ** (The symbol “**” indicates a value in the range of greater than 90 to 150)
O=S(=O)(c1cccc(C(F)(F)F)c1)N1C[C@H](CC2(CO)COC2)Oc2ccc(-c3cc(F)cc(OC(F)F)c3)cc21 [Compound 49, (S)-(3-((6-(3-(difluoromethoxy)-5-fluorophenyl)-4-((3-(trifluoromethyl)phenyl)sulfonyl)-3,4-dihydro-2H-benzo[b][1,4]oxazin-2-yl)methyl)oxetan-3-yl)methanol] | > 6.30 | ** (The symbol “**” indicates a value in the range of greater than 90 to 150) | > 6.30 | ** (The symbol “**” indicates a value in the range of greater than 90 to 150)
O=S(=O)(c1cccc(C(F)(F)F)c1)N1C[C@H](CC2(CO)COC2)Oc2ccc(-c3cc(F)cc(F)c3Cl)cc21 [Compound 51A, (S)-(3-((6-(2-chloro-3,5-difluoro-phenyl)-4-((3-(trifluoromethyl)-phenyl)sulfonyl)-3,4-dihydro-2H-benzo[b][1,4]oxazin-2-yl)methyl)oxetan-3-yl)methanol] | > 6.30 | ** (The symbol “**” indicates a value in the range of greater than 90 to 150) | > 6.30 | ** (The symbol “**” indicates a value in the range of greater than 90 to 150)
O=C(O)C1(C[C@H]2CN(S(=O)(=O)c3cccc(C(F)(F)F)c3)c3cc(-c4cc(F)cc(F)c4Cl)ccc3O2)COC1 [Compound 51B, (S)-3-((6-(2-chloro-3,5-difluoro-phenyl)-4-((3-(trifluoromethyl)-phenyl)sulfonyl)-3,4-dihydro-2H-benzo[b][1,4]oxazin-2-yl)methyl)oxetane-3-carboxylic acid] | > 6.30 | ** (The symbol “**” indicates a value in the range of greater than 90 to 150) | > 6.30 | *** (The symbol “***” indicates a value in the range of greater than 150 to 200)
COc1cc(F)cc(-c2ccc3c(c2)N(S(=O)(=O)c2cccc(C(F)(F)F)c2)C[C@H](CC2(C(=O)O)COC2)O3)c1F [Compound 51C, (S)-3-((6-(2,5-difluoro-3-methoxyphenyl)-4-((3-(trifluoromethyl)phenyl)sulfonyl)-3,4-dihydro-2H-benzo[b][1,4]oxazin-2-yl)methyl)oxetane-3-carboxylic acid] | > 6.30 | ** (The symbol “**” indicates a value in the range of greater than 90 to 150) | > 6.30 | ** (The symbol “**” indicates a value in the range of greater than 90 to 150)
O=C(O)C1(C[C@H]2CN(S(=O)(=O)c3cccc(C4CC4)c3)c3cc(-c4cc(F)ccc4F)ccc3O2)COC1 [Compound 51E, (S)-3-((4-((3-cyclopropylphenyl)sulfonyl)-6-(2,5-difluorophenyl)-3,4-dihydro-2H-benzo[b][1,4]oxazin-2-yl)methyl)oxetane-3-carboxylic acid] | < 5.00 | *** (The symbol “***” indicates a value in the range of greater than 150 to 200) | > 6.30 | *** (The symbol “***” indicates a value in the range of greater than 150 to 200)
O=C(O)C1(C[C@H]2CN(S(=O)(=O)c3cccc(C4CC4)c3)c3cc(-c4cc(F)cc(OC(F)F)c4)ccc3O2)COC1 [Compound 51F, (S)-3-((4-((3-cyclopropyl-phenyl)sulfonyl)-6-(3-(difluoro-methoxy)-5-fluorophenyl)-3,4-dihydro-2H-benzo[b][1,4]oxazin-2-yl)methyl)oxetane-3-carboxylic acid] | > 6.30 | ** (The symbol “**” indicates a value in the range of greater than 90 to 150) | > 6.30 | *** (The symbol “***” indicates a value in the range of greater than 150 to 200)
CC(=O)NC1(C[C@H]2CN(S(=O)(=O)c3cccc(C(F)(F)F)c3)c3cc(-c4cccc(C(F)(F)F)n4)ccc3O2)COC1 [Compound 51M, (S)-N-(3-((4-((3-(trifluoromethyl)-phenyl)sulfonyl)-6-(6-(trifluoromethyl)pyridin-2-yl)-3,4-dihydro-2H-benzo[b][1,4]oxazin-2-yl)methyl)oxetan-3-yl)acetamide] | > 6.30 | ** (The symbol “**” indicates a value in the range of greater than 90 to 150) | > 6.30 | *** (The symbol “***” indicates a value in the range of greater than 150 to 200)
CC(C)(C[C@@H]1CN(S(=O)(=O)c2cccc(C(F)(F)F)c2)c2cc(-c3cc(F)ccc3F)ccc2O1)C(=O)O [Compound 52, (R)-3-(6-(2,5-difluorophenyl)-4-((3-(trifluoromethyl)phenyl)sulfonyl)-3,4-dihydro-2H-benzo[b][1,4]oxazin-2-yl)-2,2-dimethylpropanoic Acid] | 5.30 to 6.30 | * (The symbol “*” indicates a value in the range of 25 to 90) | > 6.30 | ** (The symbol “**” indicates a value in the range of greater than 90 to 150)
O=C(O)[C@@H]1C[C@H]1[C@H]1CN(S(=O)(=O)c2cccc(C(F)(F)F)c2)c2cc(-c3cc(F)ccc3F)ccc2O1 [Compound 53, (1R,2R)-2-((S)-6-(2,5-difluorophenyl)-4-((3-(trifluoromethyl)phenyl)sulfonyl)-3,4-dihydro-2H-benzo[b][1,4]oxazin-2-yl)cyclopropane-1-carboxylic acid] | > 6.30 | ** (The symbol “**” indicates a value in the range of greater than 90 to 150) | > 6.30 | ** (The symbol “**” indicates a value in the range of greater than 90 to 150)
O=C(O)[C@H]1C[C@@H]1[C@H]1CN(S(=O)(=O)c2cccc(C(F)(F)F)c2)c2cc(-c3cc(F)ccc3F)ccc2O1 [Compound 54, (1S,2S)-2-((S)-6-(2,5-difluorophenyl)-4-((3-(trifluoromethyl)phenyl)sulfonyl)-3,4-dihydro-2H-benzo[b][1,4]oxazin-2-yl)cyclopropane-1-carboxylic acid] | 5.30 to 6.30 | ** (The symbol “**” indicates a value in the range of greater than 90 to 150) | > 6.30 | ** (The symbol “**” indicates a value in the range of greater than 90 to 150)
O=C(O)[C@@H]1C[C@H]1[C@H]1CN(S(=O)(=O)c2cccc(C(F)(F)F)c2)c2cc(-c3cc(F)cc(OC(F)F)c3)ccc2O1 [Compound 55, (1R,2R)-2-((S)-6-(3-(difluoromethoxy)-5-fluorophenyl)-4-((3-(trifluoromethyl)phenyl)sulfonyl)-3,4-dihydro-2H-benzo[b][1,4]oxazin-2-yl)cyclopropane-1-carboxylic acid] | > 6.30 | * (The symbol “*” indicates a value in the range of 25 to 90) | > 6.30 | ** (The symbol “**” indicates a value in the range of greater than 90 to 150)
O=C(O)[C@H]1C[C@@H]1[C@H]1CN(S(=O)(=O)c2cccc(C(F)(F)F)c2)c2cc(-c3cc(F)cc(OC(F)F)c3)ccc2O1 [Compound 56, (1S,2S)-2-((S)-6-(3-(difluoromethoxy)-5-fluorophenyl)-4-((3-(trifluoromethyl)phenyl)sulfonyl)-3,4-dihydro-2H-benzo[b][1,4]oxazin-2-yl)cyclopropane-1-carboxylic acid] | 5.30 to 6.30 | ** (The symbol “**” indicates a value in the range of greater than 90 to 150) | > 6.30 | ** (The symbol “**” indicates a value in the range of greater than 90 to 150)
